The results in this text go back to PubChem BioAssay AID330 (DTP/NCI, 2004).

Where “and” joins values, the source holds several entries; their conditions need not be identical. Identical values can stand only once. Toxic doses and inconclusive results are not listed.

The subject of the experiment is P388 leukemia ip, CD2F1 mice, survival T/C. Put plainly: NCI In Vivo Anticancer Drug Screen. Data for tumor model P388 Leukemia (intraperitoneal) in CD2F1 (CDF1) mice. The following applies: endpoint: median survival time, higher = longer survival. In outline: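 Mice carrying the transplanted tumor received test compound or vehicle. Survival was recorded in each group, and the value is the treated-group measurement divided by that of the vehicle-treated control group.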

Setting [1] is: dose: 100.0 mg/kg/injection, schedule: Q01DX009 (ip), vehicle: saline.
[2] abbreviates: dose: 200.0 mg/kg/injection, schedule: Q01DX009 (ip), vehicle: saline.
Setting [3] is: dose: 50.0 mg/kg/injection, schedule: Q01DX009 (ip), vehicle: saline with Tween-80.
[4] abbreviates: dose: 100.0 mg/kg/injection, schedule: Q01DX009 (ip), vehicle: saline with Tween-80.
Where [5] appears, read: dose: 200.0 mg/kg/injection, schedule: Q01DX009 (ip), vehicle: saline with Tween-80.
Setting [6] is: dose: 50.0 mg/kg/injection, schedule: Q01DX005 (ip), vehicle: Klucel (hydroxypropylcellulose) (HPC).
[7] abbreviates: dose: 100.0 mg/kg/injection, schedule: Q01DX005 (ip), vehicle: Klucel (hydroxypropylcellulose) (HPC).
Where [8] appears, read: dose: 200.0 mg/kg/injection, schedule: Q01DX005 (ip), vehicle: Klucel (hydroxypropylcellulose) (HPC).

Regarding `CCOC(=O)c1cc(OCC)c(OCC)c(OCC)c1[N+](=O)[O-]`, the T/C reads like this: (dose: 50.0 mg/kg/injection, schedule: Q01DX009 (ip), vehicle: saline + Tween-80 + alcohol) 98 % of control; (dose: 100.0 mg/kg/injection, schedule: Q01DX009 (ip), vehicle: saline + Tween-80 + alcohol) 100 % of control; (dose: 200.0 mg/kg/injection, schedule: Q01DX009 (ip), vehicle: saline + Tween-80 + alcohol) 100 % of control.

Turning to `CP1(=S)CCC(=O)C1` (stereo not drawn), the T/C reads like this: (dose: 50.0 mg/kg/injection, schedule: Q01DX009 (ip), vehicle: saline) 101 % of control; under setting [1], 101 % of control; under setting [2], 103 % of control.

In the case of `CC1=NN(C(=O)c2ccncc2)C(=O)C1N=Nc1ccc(-c2ccc(N)cc2)cc1` (stereo not drawn), the T/C by setting is: under setting [3], 97 % of control; under setting [4], 98 % of control; under setting [5], 96 % of control.

As to `O=C1c2ccccc2C2NCCCN12` (stereo not drawn), the T/C (dose: 50.0 mg/kg/injection, schedule: Q01DX009 (ip), vehicle: suspension in saline) was 93 % of control; the T/C (dose: 100.0 mg/kg/injection, schedule: Q01DX009 (ip), vehicle: suspension in saline) was 102 % of control; the T/C (dose: 200.0 mg/kg/injection, schedule: Q01DX009 (ip), vehicle: suspension in saline) was 107 % of control; the T/C (dose: 400.0 mg/kg/injection, schedule: Q01DX009 (ip), vehicle: suspension in saline) was 111 % of control.

In the case of `OC1C2CCCC1C(c1ccccc1)NC2c1ccccc1` (stereo not drawn), the T/C runs as follows: (dose: 100.0 mg/kg/injection, schedule: Q04DX003 (ip), vehicle: saline) 100 % of control and 94 % of control; (dose: 200.0 mg/kg/injection, schedule: Q04DX003 (ip), vehicle: saline) 100 % of control and 94 % of control; (dose: 400.0 mg/kg/injection, schedule: Q04DX003 (ip), vehicle: saline) 100 % of control.

Regarding `c1cc2cc(-c3ccc4oc(C5=NCCN5)cc4c3)[nH]c2cc1C1=NCCN1`, the T/C under setting [6] is 163 % of control, the T/C under setting [7] was 160 % of control and the T/C under setting [8] was 193 % of control.

In the case of `Cc1ccccc1-n1c(=S)n(-c2ccccn2)c2nc3ccccc3nc1/c2=N/Nc1ccccn1`, the T/C is 110 % of control (dose: 50.0 mg/kg/injection, schedule: Q01DX005 (ip), vehicle: saline with Tween-80) and 97 % of control (dose: 100.0 mg/kg/injection, schedule: Q01DX005 (ip), vehicle: saline with Tween-80).

Consider `O=C(O)CCc1c(-c2ccccc2)c(-c2ccccc2)c2n1CCC2`, for which the T/C (dose: 100.0 mg/kg/injection, schedule: Q01DX001 (ip), vehicle: saline with Tween-80) is 98 % of control; the T/C (dose: 200.0 mg/kg/injection, schedule: Q01DX001 (ip), vehicle: saline with Tween-80) is 100 % of control; the T/C (dose: 400.0 mg/kg/injection, schedule: Q01DX001 (ip), vehicle: saline with Tween-80) was 97 % of control.

As to `O=C1SC(Nc2ccccc2)/C(=N\N=C2/C(Nc3ccccc3)SC(=O)N2Cc2ccccc2)N1Cc1ccccc1` (stereo not drawn), the T/C (dose: 100.0 mg/kg/injection, schedule: Q04DX002 (ip), vehicle: Klucel (hydroxypropylcellulose) (HPC)) was 86 % of control; the T/C (dose: 200.0 mg/kg/injection, schedule: Q04DX002 (ip), vehicle: Klucel (hydroxypropylcellulose) (HPC)) was 94 % of control; the T/C (dose: 400.0 mg/kg/injection, schedule: Q04DX002 (ip), vehicle: Klucel (hydroxypropylcellulose) (HPC)) is 91 % of control.

As to `CN(C)[C@@H]1C(=O)C(C(N)=O)=C(O)[C@]2(O)C(=O)C3C(=O)c4c(O)ccc(Cl)c4[C@](C)(O)[C@H]3C[C@@H]12` (stereo partly drawn), the T/C was 109 % of control (dose: 8.8 mg/kg/injection, schedule: Q01DX009 (ip), vehicle: saline with Tween-80); 100 % of control (dose: 13.3 mg/kg/injection, schedule: Q01DX009 (ip), vehicle: saline with Tween-80); 109 % of control (dose: 20.0 mg/kg/injection, schedule: Q01DX009 (ip), vehicle: saline with Tween-80); 118 % of control (dose: 30.0 mg/kg/injection, schedule: Q01DX009 (ip), vehicle: saline with Tween-80).

Regarding `CC1(C)OC2(C)CCC1C1C2N1C(=O)C(c1ccccc1)c1ccccc1` (stereo not drawn), the T/C is 109 % of control under setting [6], 100 % of control under setting [7] and 109 % of control under setting [8].

With `CCCCCCCCCCCCCCCC[N+]1(CC)CCCC1`, the T/C was 100 % of control (dose: 0.09 mg/kg/injection, schedule: Q01DX009 (ip), vehicle: saline); 98 % of control (dose: 0.19 mg/kg/injection, schedule: Q01DX009 (ip), vehicle: saline); 112 % of control and 93 % of control (dose: 0.39 mg/kg/injection, schedule: Q01DX009 (ip), vehicle: saline).

For `COCCOCCOCCOCCOCCOCCOCCOCCOCCOCCOCCOCCOCCOCCOC(=O)CCn1cc(F)c(=O)[nH]c1=O`, the T/C (dose: 34.0 mg/kg/injection, schedule: Q04DX002 (ip), vehicle: saline) was 97 % of control; the T/C (dose: 68.0 mg/kg/injection, schedule: Q04DX002 (ip), vehicle: saline) is 111 % of control; the T/C (dose: 136.0 mg/kg/injection, schedule: Q04DX002 (ip), vehicle: saline) is 102 % of control; the T/C (dose: 272.0 mg/kg/injection, schedule: Q04DX002 (ip), vehicle: saline) is 100 % of control.

For the molecule `Cc1cccc(/C=N/NC(N)=S)n1`, the T/C (dose: 15.0 mg/kg/injection, schedule: Q04DX002 (ip), vehicle: saline with Tween-80) was 105 % of control; the T/C (dose: 30.0 mg/kg/injection, schedule: Q04DX002 (ip), vehicle: saline with Tween-80) is 106 % of control; the T/C (dose: 60.0 mg/kg/injection, schedule: Q04DX002 (ip), vehicle: saline with Tween-80) was 106 % of control.

Regarding `CC(C)C(=O)Nc1ccc(S(=O)(=O)Nc2ccc(N)cc2O)cc1`, the T/C was 96 % of control under setting [3], 101 % of control under setting [4] and 104 % of control under setting [5].

Turning to `Nc1cc([N+](=O)[O-])ccc1O`, the T/C was 102 % of control and 105 % of control under setting [1]; 101 % of control under setting [2]; 91 % of control (dose: 600.0 mg/kg/injection, schedule: Q01DX009 (ip), vehicle: saline).

Take `C=C1CC2(CC3CC2C2CCCC32)OC1=O` (stereo not drawn): the T/C (dose: 100.0 mg/kg/injection, schedule: Q04DX002 (ip), vehicle: saline) is 100 % of control; the T/C (dose: 200.0 mg/kg/injection, schedule: Q04DX002 (ip), vehicle: saline) is 94 % of control; the T/C (dose: 400.0 mg/kg/injection, schedule: Q04DX002 (ip), vehicle: saline) was 98 % of control.

`C/C=C(\C)C(=O)O[C@@H]1c2cc3c(cc2-c2c(cc(OC)c(OC)c2OC)[C@@H]2C(=O)OC[C@@H]12)OCO3`: the T/C runs as follows: (dose: 1.25 mg/kg/injection, schedule: Q01DX009 (ip), vehicle: Klucel (hydroxypropylcellulose) (HPC)) 92 % of control; (dose: 2.5 mg/kg/injection, schedule: Q01DX009 (ip), vehicle: Klucel (hydroxypropylcellulose) (HPC)) 111 % of control; (dose: 5.0 mg/kg/injection, schedule: Q01DX009 (ip), vehicle: Klucel (hydroxypropylcellulose) (HPC)) 113 % of control; (dose: 10.0 mg/kg/injection, schedule: Q01DX009 (ip), vehicle: Klucel (hydroxypropylcellulose) (HPC)) 103 % of control.

Turning to `COC(=O)C(O)(/C(=N\O)c1ccccc1)c1ccccc1` (stereo not drawn), the T/C (dose: 60.0 mg/kg/injection, schedule: Q01DX005 (ip), vehicle: saline with Tween-80) was 97 % of control and the T/C (dose: 120.0 mg/kg/injection, schedule: Q01DX005 (ip), vehicle: saline with Tween-80) is 90 % of control.

Take `COC(c1ccccc1)(c1ccccc1)c1ccc2ccc3ccccc3c2c1`: the T/C reads like this: under setting [6], 91 % of control; under setting [7], 96 % of control; under setting [8], 95 % of control.

As for `CC1OC(OCc2ccc3c(c2)C(=O)c2ccccc2C3=O)CC(N)C1O` (stereo not drawn), the T/C by setting is: (dose: 1.56 mg/kg/injection, schedule: Q01DX009 (ip), vehicle: water) 105 % of control; (dose: 3.12 mg/kg/injection, schedule: Q01DX009 (ip), vehicle: water) 104 % of control; (dose: 6.25 mg/kg/injection, schedule: Q01DX009 (ip), vehicle: water) 100 % of control; (dose: 12.5 mg/kg/injection, schedule: Q01DX009 (ip), vehicle: water) 100 % of control; (dose: 25.0 mg/kg/injection, schedule: Q01DX009 (ip), vehicle: water) 103 % of control; (dose: 50.0 mg/kg/injection, schedule: Q01DX009 (ip), vehicle: water) 92 % of control.
